These results are taken from ChEMBL document CHEMBL1123364, “Selective thromboxane synthetase inhibitors. 4. 2-(1H-imidazol-1-ylmethyl) carboxylic acids of benzo[b]furan, benzo[b]thiophene, indole, and naphthalene” (J Med Chem, 1986).

Data set [1] addresses T1, Cytochrome P450 11B1, mitochondrial (Rattus norvegicus, UniProt P15393).
T1 sequence (P15393 whole entry): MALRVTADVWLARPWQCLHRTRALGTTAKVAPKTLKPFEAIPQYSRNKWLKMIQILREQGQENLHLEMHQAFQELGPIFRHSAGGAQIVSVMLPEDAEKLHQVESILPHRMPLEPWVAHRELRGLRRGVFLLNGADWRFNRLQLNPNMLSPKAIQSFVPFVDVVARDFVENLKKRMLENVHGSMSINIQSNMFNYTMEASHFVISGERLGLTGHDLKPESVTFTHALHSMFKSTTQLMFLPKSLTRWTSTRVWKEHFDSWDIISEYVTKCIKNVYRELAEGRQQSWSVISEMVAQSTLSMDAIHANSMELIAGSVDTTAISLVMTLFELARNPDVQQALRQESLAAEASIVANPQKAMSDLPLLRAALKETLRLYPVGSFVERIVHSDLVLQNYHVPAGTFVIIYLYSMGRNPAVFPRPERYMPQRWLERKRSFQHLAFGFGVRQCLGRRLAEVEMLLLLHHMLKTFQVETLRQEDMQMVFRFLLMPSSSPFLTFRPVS
The data set can be described thus: Inhibition of rat adrenal 11-beta-hydroxylase.

For the next data set, the target named is T2, Cyclooxygenase (Rattus norvegicus, UniProt P35355+Q63921).
T2 sequence (P35355 whole entry): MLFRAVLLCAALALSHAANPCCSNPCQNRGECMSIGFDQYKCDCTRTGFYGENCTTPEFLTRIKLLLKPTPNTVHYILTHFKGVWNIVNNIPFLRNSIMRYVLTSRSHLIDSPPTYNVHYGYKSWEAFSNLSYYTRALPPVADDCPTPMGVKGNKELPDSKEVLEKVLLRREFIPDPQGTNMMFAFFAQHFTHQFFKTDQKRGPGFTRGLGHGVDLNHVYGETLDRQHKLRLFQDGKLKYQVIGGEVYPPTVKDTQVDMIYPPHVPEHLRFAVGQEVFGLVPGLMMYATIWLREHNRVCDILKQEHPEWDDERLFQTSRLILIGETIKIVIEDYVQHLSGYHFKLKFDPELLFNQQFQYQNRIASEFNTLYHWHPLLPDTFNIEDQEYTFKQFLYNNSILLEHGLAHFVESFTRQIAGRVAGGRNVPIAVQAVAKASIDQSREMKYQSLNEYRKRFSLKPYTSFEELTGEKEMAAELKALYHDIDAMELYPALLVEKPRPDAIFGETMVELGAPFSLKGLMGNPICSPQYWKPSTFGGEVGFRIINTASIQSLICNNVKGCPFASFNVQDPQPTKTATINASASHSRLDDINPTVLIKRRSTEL
T2 sequence (Q63921 whole entry): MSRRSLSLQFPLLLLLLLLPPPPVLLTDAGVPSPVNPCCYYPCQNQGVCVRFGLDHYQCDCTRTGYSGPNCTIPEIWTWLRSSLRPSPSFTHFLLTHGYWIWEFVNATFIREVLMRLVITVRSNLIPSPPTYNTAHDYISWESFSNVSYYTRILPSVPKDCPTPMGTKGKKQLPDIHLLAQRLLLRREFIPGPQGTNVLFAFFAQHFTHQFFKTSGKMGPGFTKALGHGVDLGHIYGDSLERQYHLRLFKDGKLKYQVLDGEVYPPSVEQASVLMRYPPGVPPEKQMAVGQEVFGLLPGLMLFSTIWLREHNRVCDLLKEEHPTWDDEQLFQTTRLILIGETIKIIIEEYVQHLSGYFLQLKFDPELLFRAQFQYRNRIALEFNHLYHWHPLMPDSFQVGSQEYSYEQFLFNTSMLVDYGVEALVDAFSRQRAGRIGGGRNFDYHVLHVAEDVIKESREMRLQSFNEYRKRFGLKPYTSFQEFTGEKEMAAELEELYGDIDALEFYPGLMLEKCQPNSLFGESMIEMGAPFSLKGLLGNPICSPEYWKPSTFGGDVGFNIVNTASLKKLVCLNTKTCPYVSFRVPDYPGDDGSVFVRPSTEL
The data set can be described thus: Inhibition of cyclooxygenase from RBL-1 cells. The format is cell-based.

Another data set deals with T3, Thromboxane-A synthase (Homo sapiens, UniProt P24557).
T3 sequence (P24557 whole entry): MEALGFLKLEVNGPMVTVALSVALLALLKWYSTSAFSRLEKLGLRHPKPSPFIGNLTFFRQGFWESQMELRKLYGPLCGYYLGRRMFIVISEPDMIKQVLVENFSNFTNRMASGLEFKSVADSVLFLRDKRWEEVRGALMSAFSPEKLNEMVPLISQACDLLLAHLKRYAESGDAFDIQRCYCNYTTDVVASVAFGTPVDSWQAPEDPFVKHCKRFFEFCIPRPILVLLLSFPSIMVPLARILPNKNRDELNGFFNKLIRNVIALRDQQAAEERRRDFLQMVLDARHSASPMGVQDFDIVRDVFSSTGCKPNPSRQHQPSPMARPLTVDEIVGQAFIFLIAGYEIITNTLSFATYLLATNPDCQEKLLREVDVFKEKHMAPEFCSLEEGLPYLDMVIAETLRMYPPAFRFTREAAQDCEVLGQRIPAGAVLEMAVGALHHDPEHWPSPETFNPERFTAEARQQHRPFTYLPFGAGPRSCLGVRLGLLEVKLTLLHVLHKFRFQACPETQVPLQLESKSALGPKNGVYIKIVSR
The data set can be described thus: Inhibition of TXA2 synthetase from human platelets.

Data set [2] in a line: Ionisation constant in presence of acid. Format: ADME.
Data set [3] in a line: Ionisation constant in presence of base. The format is ADME.

Molecules are shown by their SMILES.

Take `O=C(O)c1ccc2oc(Cn3ccnc3)c(Cl)c2c1`: the IC50 in data set [1] was above 100 µM; on Cyclooxygenase it was above 0.0002 M; at Thromboxane-A synthase, 0.031 µM.

Turning to `O=C(O)c1ccc2sc(Cn3ccnc3)cc2c1`, the IC50 in data set [1] is above 100 µM; at Cyclooxygenase, above 0.0002 M; against Thromboxane-A synthase it was 0.015 µM. Further, the pKa is 3.9 in data set [2] and 6.34 in data set [3].

On to `O=C(O)c1ccc2sc(Cn3ccnc3)c(Br)c2c1`, for which the IC50 in data set [1] was above 100 µM; on Thromboxane-A synthase, 0.027 µM.

In the case of `O=C(O)c1cccc2cc(Cn3ccnc3)ccc12`, the IC50 on Thromboxane-A synthase was 0.071 µM.

On to `Cc1c(Cn2ccnc2)sc2cc(C(=O)O)ccc12`, for which the figures for the IC50 against Cyclooxygenase and against Thromboxane-A synthase were above 0.0002 M and 0.018 µM, respectively.

In the case of `Cc1c(Cn2ccnc2)oc2ccc(C(=O)O)cc12`, the IC50 in data set [1] was 100 µM; against Cyclooxygenase, above 0.0002 M; on Thromboxane-A synthase, 0.034 µM. Besides, the pKa in data set [2] came out at 3.91; in data set [3], 6.08.

As to `Cc1c(Cn2ccnc2)sc2ccc(C(=O)O)cc12`, the values for the concentration for half-maximal inhibition (IC50) (in data set [1]; at Cyclooxygenase; on Thromboxane-A synthase) were above 100 µM, above 0.0002 M and 0.017 µM, respectively. In addition, the pKa was determined as 3.82 in data set [2] and 6.58 in data set [3].

For `O=C(O)c1ccc2oc(Cn3ccnc3)cc2c1`, at Thromboxane-A synthase, half-maximal inhibition (IC50) was put at 0.012 µM.

The molecule `O=C(O)c1ccc2oc(Cn3ccnc3)c(Br)c2c1` yielded an IC50 at Thromboxane-A synthase of 0.03 µM.

`CSc1c(Cn2ccnc2)sc2ccc(C(=O)O)cc12` came in with an IC50 against Thromboxane-A synthase of 0.043 µM.

In the case of `O=C(O)c1ccc2sc(Cn3ccnc3)c(Cl)c2c1`, the half-maximal inhibitory concentration (IC50) against Cyclooxygenase was above 0.0002 M; on Thromboxane-A synthase, 0.022 µM.

On Thromboxane-A synthase, `Cc1c(Cn2ccnc2)[nH]c2ccc(C(=O)O)cc12` showed an IC50 of 0.037 µM.

On to `O=C(O)c1ccc2c(Cl)c(Cn3ccnc3)sc2c1`, for which the 50% inhibitory concentration (IC50) at Cyclooxygenase was above 0.0002 M; at Thromboxane-A synthase, 0.04 µM.

The molecule `O=C(O)c1ccc2cc(Cn3ccnc3)ccc2c1` came in with an IC50 on Thromboxane-A synthase of 0.034 µM.

On to `Cc1c(Cn2ccnc2)n(C)c2ccc(C(=O)O)cc12`, for which the pKa was 4.08 in data set [2] and 6.32 in data set [3]. The concentration for half-maximal inhibition (IC50) against Cyclooxygenase was above 0.0002 M; against Thromboxane-A synthase, 0.032 µM.

`O=C(O)c1ccc(OCCn2ccnc2)cc1` [DAZOXIBEN]: the IC50 in data set [1] is above 100 µM.

Usually IC50 stands for the concentration needed to halve the response being measured. Higher therefore signals weaker potency. Broadly, the pKa is the negative logarithm of the acid dissociation constant.
